From patent publication US20250376461A1, “INDAZOLE DERIVATIVES FOR TREATING TRPM3-MEDIATED DISORDERS” (Katholieke Universiteit Leuven, priority 2022, published 2025)

The compounds below were run against T1, mouse TRPM3α2 (mTRPM3) ion channel (Mus musculus, UniProt J9SQF3) (assay: TRPM3 ion channel driven Ca2+ uptake, Fluo-4 AM assay, mTRPM3alpha2 overexpressing flip-in HEK293 cells stimulated with pregnenolone sulfate (50 μM)). Settings: mTRPM3 overexpressing HEK293 cells stimulated with pregnenolone sulfate (50 μM), activity ranges A, B, C.
T1 construct: expressed in transfected cells; host or cells: flip-in HEK293
Assay type: cell-based
Procedure, shortened: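 Ca2+ influx via mouse TRPM3α2 was opened with pregnenolone sulfate (50 μM) and tracked by Fluo-4 AM fluorescence at 485/535 nm, read directly after adding about 2000 stably transfected HEK293 cells per well to compound. IC50 values come from percent inhibition scaled to vehicle and positive-control inhibitor signals.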

T1 sequence (J9SQF3 1-1709 isoform J9SQF3-12): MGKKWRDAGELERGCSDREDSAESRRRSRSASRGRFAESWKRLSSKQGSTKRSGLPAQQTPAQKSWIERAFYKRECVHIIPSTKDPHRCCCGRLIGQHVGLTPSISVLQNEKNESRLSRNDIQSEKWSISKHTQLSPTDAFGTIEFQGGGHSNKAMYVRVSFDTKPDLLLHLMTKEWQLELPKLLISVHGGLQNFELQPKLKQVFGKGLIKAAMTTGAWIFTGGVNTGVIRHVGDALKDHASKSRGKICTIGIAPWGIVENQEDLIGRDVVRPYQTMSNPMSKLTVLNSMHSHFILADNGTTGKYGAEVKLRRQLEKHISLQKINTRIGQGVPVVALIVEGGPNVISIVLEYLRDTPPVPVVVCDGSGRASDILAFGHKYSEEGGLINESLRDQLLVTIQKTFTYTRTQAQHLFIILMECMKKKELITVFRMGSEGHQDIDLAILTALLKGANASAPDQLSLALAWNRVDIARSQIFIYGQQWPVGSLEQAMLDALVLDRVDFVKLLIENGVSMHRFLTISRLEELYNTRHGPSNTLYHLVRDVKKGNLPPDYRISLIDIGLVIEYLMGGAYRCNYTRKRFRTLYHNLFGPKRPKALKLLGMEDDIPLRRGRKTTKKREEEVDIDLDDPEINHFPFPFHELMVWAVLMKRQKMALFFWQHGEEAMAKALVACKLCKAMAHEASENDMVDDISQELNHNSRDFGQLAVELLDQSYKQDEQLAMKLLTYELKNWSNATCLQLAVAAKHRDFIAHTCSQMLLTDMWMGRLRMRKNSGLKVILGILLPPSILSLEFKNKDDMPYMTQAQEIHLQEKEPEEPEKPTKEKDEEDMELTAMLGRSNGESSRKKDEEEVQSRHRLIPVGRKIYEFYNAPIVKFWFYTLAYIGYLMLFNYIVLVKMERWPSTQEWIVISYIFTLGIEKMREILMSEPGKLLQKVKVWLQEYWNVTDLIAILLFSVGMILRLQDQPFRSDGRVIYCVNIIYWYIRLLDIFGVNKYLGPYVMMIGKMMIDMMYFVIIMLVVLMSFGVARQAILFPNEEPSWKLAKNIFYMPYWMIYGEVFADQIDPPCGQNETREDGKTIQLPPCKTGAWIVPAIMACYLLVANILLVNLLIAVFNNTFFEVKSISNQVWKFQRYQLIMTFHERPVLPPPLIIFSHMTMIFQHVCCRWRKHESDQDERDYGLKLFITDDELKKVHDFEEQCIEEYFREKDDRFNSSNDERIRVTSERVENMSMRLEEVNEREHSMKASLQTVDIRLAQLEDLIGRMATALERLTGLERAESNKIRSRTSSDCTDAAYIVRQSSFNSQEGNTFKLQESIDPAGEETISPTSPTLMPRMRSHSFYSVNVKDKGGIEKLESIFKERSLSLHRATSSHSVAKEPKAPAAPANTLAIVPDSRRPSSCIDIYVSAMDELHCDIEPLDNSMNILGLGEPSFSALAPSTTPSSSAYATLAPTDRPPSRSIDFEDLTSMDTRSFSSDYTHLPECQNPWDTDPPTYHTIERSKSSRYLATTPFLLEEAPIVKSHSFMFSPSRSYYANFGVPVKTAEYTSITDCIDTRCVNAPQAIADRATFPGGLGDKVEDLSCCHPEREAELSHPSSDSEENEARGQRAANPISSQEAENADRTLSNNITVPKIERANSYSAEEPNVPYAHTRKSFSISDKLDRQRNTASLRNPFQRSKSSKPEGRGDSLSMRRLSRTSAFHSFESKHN

Structure (SMILES) | IC50 [µM]
Cc1ncsc1COc1ccc2nn(C)c(C(=O)NC3CCN(CC(F)(F)F)C3)c2c1 (stereo not shown) [Cpd 057, 2-methyl-5-[(4-methyl-1,3-thiazol-5-yl)methoxy]-N-[1-(2,2,2-trifluoroethyl)pyrrolidin-3-yl]-2H-indazole-3-carboxamide] | 1 to 20
Cn1nccc1COc1ccc2nn(C)c(C(=O)NC3(CO)CCOCC3)c2c1 [Cpd 058, N-[4-(hydroxymethyl)oxan-4-yl]-2-methyl-5-[(1-methyl-1H-pyrazol-5-yl)methoxy]-2H-indazole-3-carboxamide] | > 20
Cn1nc2ccc(OCc3ccccc3)cc2c1C(=O)NC1CCN(CC(F)(F)F)C1 (stereo not shown) [Cpd 060, 5-(benzyloxy)-2-methyl-N-[1-(2,2,2-trifluoroethyl)pyrrolidin-3-yl]-2H-indazole-3-carboxamide] | 1 to 20
Cn1nccc1COc1ccc2nn(C)c(C(=O)NC3(C(N)=O)CCC3)c2c1 [Cpd 061, N-(1-carbamoylcyclobutyl)-2-methyl-5-[(1-methyl-1H-pyrazol-5-yl)methoxy]-2H-indazole-3-carboxamide] | 1 to 20
Cn1nccc1COc1ccc2nn(C)c(C(=O)NC3CCNC3=O)c2c1 (stereo not shown) [Cpd 062, 2-methyl-5-[(1-methyl-1H-pyrazol-5-yl)methoxy]-N-(2-oxopyrrolidin-3-yl)-2H-indazole-3-carboxamide] | > 20
Cc1ncsc1COc1ccc2nn(C)c(C(=O)NCC3CCC(=O)N3)c2c1 (stereo not shown) [Cpd 063, 2-methyl-5-[(4-methyl-1,3-thiazol-5-yl)methoxy]-N-[(5-oxopyrrolidin-2-yl)methyl]-2H-indazole-3-carboxamide] | 1 to 20
Cc1ncsc1COc1ccc2nn(C)c(C(=O)NC3CCNC3=O)c2c1 (stereo not shown) [Cpd 064, 2-methyl-5-[(4-methyl-1,3-thiazol-5-yl)methoxy]-N-(2-oxopyrrolidin-3-yl)-2H-indazole-3-carboxamide] | 1 to 20
Cn1nc2ccc(OCc3cccnc3C(F)(F)F)cc2c1C(=O)NC1(CCO)CCC1 [Cpd 065, N-[1-(2-hydroxyethyl)cyclobutyl]-2-methyl-5-{[2-(trifluoromethyl)pyridin-3-yl]methoxy}-2H-indazole-3-carboxamide] | 1 to 20
Cn1nc2ccc(OCc3ccccc3)cc2c1C(=O)NCC1CCC(=O)N1 (stereo not shown) [Cpd 066, 5-(benzyloxy)-2-methyl-N-[(5-oxopyrrolidin-2-yl)methyl]-2H-indazole-3-carboxamide] | > 20
Cn1nccc1COc1ccc2nn(C)c(C(=O)NC3(CO)CC3)c2c1 [Cpd 067, N-[1-(hydroxymethyl)cyclopropyl]-2-methyl-5-[(1-methyl-1H-pyrazol-5-yl)methoxy]-2H-indazole-3-carboxamide] | > 20
Cn1nc2ccc(OCc3cccnc3C(F)(F)F)cc2c1C(=O)NCC(C)(C)N1CCOCC1 [Cpd 068, 2-methyl-N-[2-methyl-2-(morpholin-4-yl)propyl]-5-{[2-(trifluoromethyl)pyridin-3-yl]methoxy}-2H-indazole-3-carboxamide] | 1 to 20
Cn1nccc1COc1ccc2nn(C)c(C(=O)NCC3CCC(=O)N3)c2c1 (stereo not shown) [Cpd 069, 2-methyl-5-[(1-methyl-1H-pyrazol-5-yl)methoxy]-N-[(5-oxopyrrolidin-2-yl)methyl]-2H-indazole-3-carboxamide] | > 20
Cc1ncsc1COc1ccc2nn(C)c(C(=O)NC3(C(N)=O)CCC3)c2c1 [Cpd 070, N-(1-carbamoylcyclobutyl)-2-methyl-5-[(4-methyl-1,3-thiazol-5-yl)methoxy]-2H-indazole-3-carboxamide] | < 1
CN1CCC(NC(=O)c2c3cc(OCc4ccnn4C)ccc3nn2C)C1 (stereo not shown) [Cpd 071, 2-methyl-5-[(1-methyl-1H-pyrazol-5-yl)methoxy]-N-(1-methylpyrrolidin-3-yl)-2H-indazole-3-carboxamide] | 1 to 20
Cc1ncsc1COc1ccc2nn(C)c(C(=O)NCC3(N(C)C)CCC3)c2c1 [Cpd 072, N-{[1-(dimethylamino)cyclobutyl]methyl}-2-methyl-5-[(4-methyl-1,3-thiazol-5-yl)methoxy]-2H-indazole-3-carboxamide] | 1 to 20
Cn1nc2ccc(OCc3cccnc3C(F)(F)F)cc2c1C(=O)NCCN1CCOC1=O [Cpd 073, 2-methyl-N-[2-(2-oxo-1,3-oxazolidin-3-yl)ethyl]-5-{[2-(trifluoromethyl)pyridin-3-yl]methoxy}-2H-indazole-3-carboxamide] | 1 to 20
Cn1nc2ccc(OCc3ccccc3)cc2c1C(=O)NC1(CO)CCOCC1 [Cpd 074, 5-(benzyloxy)-N-[4-(hydroxymethyl)oxan-4-yl]-2-methyl-2H-indazole-3-carboxamide] | 1 to 20
Cc1ncsc1COc1ccc2nn(C)c(C(=O)NC3CCN(C)C3)c2c1 (stereo not shown) [Cpd 075, 2-methyl-5-[(4-methyl-1,3-thiazol-5-yl)methoxy]-N-(1-methylpyrrolidin-3-yl)-2H-indazole-3-carboxamide] | 1 to 20
Cn1nc2ccc(OCc3cccnc3C(F)(F)F)cc2c1C(=O)NC(C)(C)CO [Cpd 076, N-(1-hydroxy-2-methylpropan-2-yl)-2-methyl-5-{[2-(trifluoromethyl)pyridin-3-yl]methoxy}-2H-indazole-3-carboxamide] | 1 to 20

Structure (SMILES) | IC50 [µM]
Cn1nc2ccc(OCc3cccnc3C(F)(F)F)cc2c1C(=O)NC1CCN(CC(F)(F)F)C1 (stereo not shown) [Cpd 077, 2-methyl-N-[1-(2,2,2-trifluoroethyl)pyrrolidin-3-yl]-5-{[2-(trifluoromethyl)pyridin-3-yl]methoxy}-2H-indazole-3-carboxamide] | 1 to 20
CN(C)C1(CNC(=O)c2c3cc(OCc4ccccc4)ccc3nn2C)CCC1 [Cpd 078, 5-(benzyloxy)-N-{[1-(dimethylamino)cyclobutyl]methyl}-2-methyl-2H-indazole-3-carboxamide] | 1 to 20
Cn1nccc1COc1ccc2nn(C)c(C(=O)NC3(CCO)CCC3)c2c1 [Cpd 079, N-[1-(2-hydroxyethyl)cyclobutyl]-2-methyl-5-[(1-methyl-1H-pyrazol-5-yl)methoxy]-2H-indazole-3-carboxamide] | > 20
CN1CC(NC(=O)c2c3cc(OCc4cccnc4C(F)(F)F)ccc3nn2C)C(F)(F)C1 (stereo not shown) [Cpd 081, N-(4,4-difluoro-1-methylpyrrolidin-3-yl)-2-methyl-5-{[2-(trifluoromethyl)pyridin-3-yl]methoxy}-2H-indazole-3-carboxamide] | 1 to 20
C[C@H](NC(=O)c1c2cc(OCc3ccccn3)ccc2nn1C)C(N)=O [Cpd 082, (2S)-2-({2-methyl-5-[(pyridin-2-yl)methoxy]-2H-indazol-3-yl}formamido)propanamide] | 1 to 20
C[C@@H](NC(=O)c1c2cc(OCc3ccccn3)ccc2nn1C)C(N)=O [Cpd 083, (2R)-2-({2-methyl-5-[(pyridin-2-yl)methoxy]-2H-indazol-3-yl}formamido)propanamide] | 1 to 20
CN1CCC(NC(=O)c2c3cc(OCc4ccccn4)ccc3nn2C)CC1 [Cpd 084, 2-methyl-N-(1-methylpiperidin-4-yl)-5-[(pyridin-2-yl)methoxy]-2H-indazole-3-carboxamide] | 1 to 20
Cn1nc2ccc(OCc3ccccn3)cc2c1C(=O)NC1(C(N)=O)CCOCC1 [Cpd 085, N-(4-carbamoyloxan-4-yl)-2-methyl-5-[(pyridin-2-yl)methoxy]-2H-indazole-3-carboxamide] | 1 to 20
Cn1nc2ccc(OCc3ccccn3)cc2c1C(=O)NC1(CO)CCC1 [Cpd 086, N-[1-(hydroxymethyl)cyclobutyl]-2-methyl-5-[(pyridin-2-yl)methoxy]-2H-indazole-3-carboxamide] | 1 to 20
Cn1nc2ccc(OCc3cccnc3C(F)(F)F)cc2c1C(=O)NC1(C(N)=O)COC1 [Cpd 087, N-(3-carbamoyloxetan-3-yl)-2-methyl-5-{[2-(trifluoromethyl)pyridin-3-yl]methoxy}-2H-indazole-3-carboxamide] | 1 to 20
CN1CC(NC(=O)c2c3cc(OCc4ccnn4C)ccc3nn2C)C(F)(F)C1 (stereo not shown) [Cpd 088, N-(4,4-difluoro-1-methylpyrrolidin-3-yl)-2-methyl-5-[(1-methyl-1H-pyrazol-5-yl)methoxy]-2H-indazole-3-carboxamide] | > 20
Cc1ncsc1COc1ccc2nn(C)c(C(=O)NCc3cccc(O)n3)c2c1 [Cpd 089, N-[(6-hydroxypyridin-2-yl)methyl]-2-methyl-5-[(4-methyl-1,3-thiazol-5-yl)methoxy]-2H-indazole-3-carboxamide] | < 1
Cn1nc2ccc(OCc3cccnc3C(F)(F)F)cc2c1C(=O)NC1CCN(CCO)C1=O (stereo not shown) [Cpd 090, N-[1-(2-hydroxyethyl)-2-oxopyrrolidin-3-yl]-2-methyl-5-{[2-(trifluoromethyl)pyridin-3-yl]methoxy}-2H-indazole-3-carboxamide] | 1 to 20
Cn1nc2ccc(OCc3ccccc3)cc2c1C(=O)NC(CO)C(F)(F)F (stereo not shown) [Cpd 091, 5-(benzyloxy)-2-methyl-N-(1,1,1-trifluoro-3-hydroxypropan-2-yl)-2H-indazole-3-carboxamide] | 1 to 20
CN1CCC(NC(=O)c2c3cc(OCc4ccccc4)ccc3nn2C)C1 (stereo not shown) [Cpd 092, 5-(benzyloxy)-2-methyl-N-(1-methylpyrrolidin-3-yl)-2H-indazole-3-carboxamide] | 1 to 20
CN1CCC(NC(=O)c2c3cc(OCc4ccccc4F)ccc3nn2C)CC1 [Cpd 093, 5-[(2-fluorophenyl)methoxy]-2-methyl-N-(1-methylpiperidin-4-yl)-2H-indazole-3-carboxamide] | 1 to 20
Cn1nc2ccc(OCc3ccccc3F)cc2c1C(=O)NC1(CO)CCC1 [Cpd 094, 5-[(2-fluorophenyl)methoxy]-N-[1-(hydroxymethyl)cyclobutyl]-2-methyl-2H-indazole-3-carboxamide] | 1 to 20
Cn1nc2ccc(OCc3ccccc3F)cc2c1C(=O)NC1(CO)CC1 [Cpd 095, 5-[(2-fluorophenyl)methoxy]-N-[1-(hydroxymethyl)cyclopropyl]-2-methyl-2H-indazole-3-carboxamide] | 1 to 20
